The values that follow come from patent US7491836B2, “Non-ionic surfactants for poorly soluble molecules” (AstraZeneca AB, priority 2003, dated 2009).

Converted amounts (≈) assume the structure as drawn. Read-outs that look alike come from different tables or passages of the source.

The subject of series [1] is dog blood erythrocyte suspension. The series can be described thus: Haemolytic activity, static method (erythrocyte suspension incubated with surfactant, haemoglobin analysed). In kind it is cell-based. The conditions noted are these: for Hemolysis: 40 min at 37° C. As for the experimental part:
A static method for evaluating the haemolytic activity of compounds was used. In short, dog blood is processed to an erythrocyte suspension, which is then incubated (40 min at 37° C.) with varying concentrations of a surfactant. The incubation is terminated by centrifugation after which the plasma, now containing different amounts of haemoglobin, can be removed and analysed. The results obtained for various MePEG- and PEG mono-12-acyloxy-stearate esters compared with a reference substance (Tween 80), are summarized in tables 3-4.

For the next series, the system named is CACO-2 cells. The series can be described thus: Epithelial cell interaction monitored as transepithelial electrical resistance (TEER). In kind it is cell-based. As to the method:
Possible interaction with epithelial cells in the form of CACO-2 cells monitored as transepitheliar electrical resistance (TEER) was studied for some of the compounds. In short, after an equilibration time of 60 min the buffer solution at the donor side was exchanged with a buffer solution containing a certain concentration of the surfactant and TEER was then measured after 8 hours.

The next series in a line: physchem. As to the method:
The solubilization capacity of the compounds of the invention and compounds of prior art for two poorly soluble (i.e. less than sparingly soluble) drug molecules, felodipine and griseofulvin, were tested. […] Sci., 1998, 87(2), 200-8]. The solubilization capacity for each surfactant was determined from the slope of the curve in a graph where the felodipine/griseofulvin concentration was plotted against the surfactant concentration at surfactant concentrations above CMC (critical micellar concentration).

For series [2] the following is noted: cited from earlier work.

Regarding `CCCCCCC(O)CCCCCCCCCCC(=O)OCCOCCOCCOCCOCCOCCOCCOCCOCCOCCOCCOCCOC` (stereo not shown) [MePEG550 12-hydroxystearate], the “haemolysis (in words)” value in series [1] (at 1 mM) is “profound hemolysis”. Moreover, the Hemolysis was 25% in series [1] (surfactant conc 1.0 mM), 86% in series [1] (surfactant conc 5.0 mM) and 79% in series [1] (surfactant conc 10 mM). The “concentration causing total haemolysis” value in series [1] (text summary of Tables 3-4) turned out to be 5000 µM.

On to `CCCCCCC(CCCCCCCCCCC(=O)OCCOCCOCCOCCOCCOCCOCCOCCOCCOCCOCCOCCOCCO)OC(=O)CCCCC` (stereo not shown) [PEG600 mono-12-hexanoyloxy-stearate], for which the Hemolysis in series [1] (surfactant conc 0.6 mM) was found to be 83%; in series [1] (surfactant conc 0.7 mM), 92%. In addition, the “TEER after 8 hours exposure” value in the series on CACO-2 cells (surfactant conc 0.1 mM) is on record as 89%; in the series with CACO-2 cells (surfactant conc 1 mM) it was 43%; in the series on CACO-2 cells (surfactant conc 10 mM) it was 39%; in the series on CACO-2 cells (surfactant conc 50 mM) it was 37%.

Regarding `CCCCCCCC(=O)OC(CCCCCC)CCCCCCCCCCC(=O)OCCOCCOCCOCCOCCOCCOCCOCCOCCOCCOCCOCCOCCO` (stereo not shown) [PEG600 mono-12-octanoyloxy-stearate], the Hemolysis in series [1] (surfactant conc 0.6 mM) was 88%; in series [1] (surfactant conc 0.7 mM) it was 102%.

Turning to `CCOC(=O)C1=C(C)NC(C)=C(C(=O)OC)C1c1cccc(Cl)c1Cl` (stereo not shown) [felodipine], the solubility in water in the series “physchem” was 2.1 µM (≈ 0.807 µg/mL); in series [2] it was 0.8 µg/mL (≈ 2.08 µM).

The solubility is how much of the substance goes into solution per volume. Compound `COC1=CC(=O)C[C@@H](C)[C@]12Oc1c(Cl)c(OC)cc(OC)c1C2=O` [griseofulvin] registered a solubility in “physchem” (water) of around 23 µM (≈ 8.11 µg/mL). Further, the solubility in water entry in series [2] is “approximately 8.1 μg/ml”.

As to MePEG1200 12-palmitoyloxy-stearate, the “TEER after 8 hours exposure” value is on record as 94% in the series with CACO-2 cells (surfactant conc 10 mM) and 103% in the series with CACO-2 cells (surfactant conc 50 mM).

Regarding MePEG1200 12-stearoyloxy-stearate, the “TEER after 8 hours exposure” value with CACO-2 cells (surfactant conc 10 mM) is given as 101%; with CACO-2 cells (surfactant conc 50 mM) it was 71%.

With MePEG2000 12-palmitoyloxy-stearate, the figures for the “TEER after 8 hours exposure” value in the series on CACO-2 cells (surfactant conc 10 mM) and with CACO-2 cells (surfactant conc 50 mM) were 96% and 99%, respectively.

For MePEG2000 12-stearoyloxy-stearate, the “TEER after 8 hours exposure” value in the series with CACO-2 cells (surfactant conc 10 mM) stood at 98%; in the series with CACO-2 cells (surfactant conc 50 mM) it was 96%.

With PEG1500 mono-12-lauroyloxy-stearate, in the series on CACO-2 cells (after 8 hours), the “change in TEER / interaction with epithelial cells (in words)” value is reported as “substantial decrease in TEER”. Further, the “TEER after 8 hours exposure” value is recorded as 100% with CACO-2 cells (surfactant conc 0.1 mM), 96% with CACO-2 cells (surfactant conc 1 mM), 93% in the series on CACO-2 cells (surfactant conc 10 mM) and 37% in the series with CACO-2 cells (surfactant conc 50 mM).

Consider PEG1500 mono-12-myristoyloxy-stearate, for which the “TEER after 8 hours exposure” value is listed as 104% in the series with CACO-2 cells (surfactant conc 0.1 mM), 100% in the series with CACO-2 cells (surfactant conc 1 mM), 104% in the series on CACO-2 cells (surfactant conc 10 mM) and 98% in the series with CACO-2 cells (surfactant conc 50 mM).

For PEG1500 mono-12-oleoyloxy-stearate, the “TEER after 8 hours exposure” value with CACO-2 cells (surfactant conc 0.1 mM) is given as 105%; in the series with CACO-2 cells (surfactant conc 1 mM), 104%; in the series with CACO-2 cells (surfactant conc 10 mM), 95%; in the series on CACO-2 cells (surfactant conc 50 mM) it was 108%.

For PEG1500 mono-12-palmitoyloxy-stearate, the “TEER after 8 hours exposure” value in the series with CACO-2 cells (surfactant conc 0.1 mM) is on record as 98%; in the series on CACO-2 cells (surfactant conc 1 mM) it was 105%; with CACO-2 cells (surfactant conc 10 mM), 103%; in the series with CACO-2 cells (surfactant conc 50 mM), 101%.

Consider PEG1500 mono-12-stearoyloxy-stearate, for which the “TEER after 8 hours exposure” value is listed as 98% in the series on CACO-2 cells (surfactant conc 0.1 mM), 104% in the series on CACO-2 cells (surfactant conc 1 mM), 103% in the series with CACO-2 cells (surfactant conc 10 mM) and 108% with CACO-2 cells (surfactant conc 50 mM).
